Experimental data from patent EP0148075A2, “Anti-PGE specific monoclonal antibodies, their preparation and their biological applications” (INSTITUT PASTEUR, priority 1983, dated 1985).

Assays:
Format in all cases: binding, souris
[1] = system: anticorps monoclonal anti-PG E2 secrété par les hybridomes 8E57 (CNCM 1-254); assay: competition radioimmunoassay (affinity by Scatchard plot, specificity by displacement of tritiated PG E2); details: 12 h at 4°C; for quantité qu'il faut pour déplacer 2,5 pg de PG E2 tritiée de sa liaison à l'anticorps: competition with tritiated PG E2
Procedure: (§1) 'L'affinité des anticorps est étudiée en effectuant un essai radio-immunologique dit de compétition; on détermine l'importance relative de la fixation de PG E marquée au tritium et non marquée sur les anticorps monoclonaux à étudier pour des mélanges de ces PG E en quantités données; Pour cela, on fait incuber 12 heures à 4°C des quantités croissantes de PG E non marquée avec une dilution du surnageant de chaque puits dans lequel se développent des clones secréteurs, en présence de 10 pg de la même PG E mais tritiée; on calcule la dilution pour que 50% de la PG E tritiée se fixe sur les anticorps présents; les résultats obtenus sont représentés selon une courbe de Scatchard, d'où l'on déduit, de façon connue, la constante d'association de l'anticorps monoclonal à la PG E qui traduit l'affinité des anticorps pour leur antigène. La méthode de calcul de la constante d'association est décrite notamment dans Ann. N.Y. Acad. Sci.5l, p.660-672 (1949).
(§2) La spécificité des anticorps est étudiée en effectuant le même type d'essai radioimmunologique de compétition lors de la fixation sur l'anticorps monoclonal anti-PG E à étudier, mais la compétition a lieu entre la PG E tritiée correspondant à l'anticorps préparé et d'autres prostaglandines.
(§3) On mesure l'affinité et la spécificité des anti-corps secrétés dans le surnageant, par les méthodes radio-immunologiques de compétition de liaison précédemment décrites.

[2] = system: anticorps monoclonal anti-PG E2 secrété par les hybridomes 42-61-48 (CNCM 1-255), type IgG Cb Kapa; assay: as above; details: 12 h at 4°C; for quantité qu'il faut pour déplacer 2,5 pg de PG E2 tritiée liée à l'anticorps: competition with tritiated PG E2
Procedure: as §1, §2, §3

[3] = biological target: anticorps monoclonal anti-PG E1 de la lignée d'hybridomes 36-F-20 (36F20, CNCM I-403), type IgG 1 Kapa; assay: competition radioimmunoassay (affinity, Scatchard plot); details: association constant for PG E1; 720 min; read-out: constante d'affinité (converted)
Procedure: as §1

[4] = biological target: anticorps monoclonal anti-PG E2 de la souche 38-200.10 (CNCM I-401), type IgGl Kapa; assay: as above; details: association constant for PG E2; 720 min; read-out: constante d'affinité (converted)
Procedure: as §1, §3

[5] = biological target: anticorps monoclonal anti-PG E2 de la souche 42-61-48.46 (CNCM I-402); assay: as above; details: association constant for PG E2; 720 min; read-out: constante d'affinité (converted)
Procedure: as §1, §3

[6] = association constant for PG E2, 10 pg tritiated PG E2

| quantité qu'il faut pour déplacer 2,5 pg de PG E2 tritiée de sa liaison à l'anticorps [1] | quantité qu'il faut pour déplacer 2,5 pg de PG E2 tritiée liée à l'anticorps [2] | Kd [3] | Kd [4] | Kd [5] | constante d'affinité Ka [1, 6] | constante d'affinité Ka [2, 6] | SMILES |
| --- | --- | --- | --- | --- | --- | --- | --- |
| 350 pg | 1000 pg | – | – | – | – | – | CCCCC[C@H](O)/C=C/[C@H]1[C@H](O)CC(=O)[C@@H]1CC(=O)CCCCC(=O)O [6-céto-PG E1] |
| > 500 pg | 50 000 pg | – | – | – | – | – | CCCCC[C@H](O)/C=C/[C@H]1C=CC(=O)[C@@H]1C/C=C\CCCC(=O)O [PG A2] |
| > 10 000 pg | 500 000 pg | – | – | – | – | – | CCCCC[C@H](O)/C=C/C1=C(C/C=C\CCCC(=O)O)C(=O)CC1 [PG B2] |
| 70 pg | 350 pg | 0.05 nM | – | – | – | – | CCCCC[C@H](O)/C=C/[C@H]1[C@H](O)CC(=O)[C@@H]1CCCCCCC(=O)O [PG E1] |
| 40 pg | 80 pg | – | 0.11 nM | 0.222 nM | 10^10 M^-1 | 5e+09 M⁻¹ | CCCCC[C@H](O)/C=C/[C@H]1[C@H](O)CC(=O)[C@@H]1C/C=C\CCCC(=O)O [PG E2] |
| – | 40 000 pg | – | – | – | – | – | CCCCC[C@H](O)/C=C/[C@@H]1[C@@H](CCCCCCC(=O)O)[C@@H](O)C[C@H]1O [PG Flalpha] |
